Test results reported in patent US20260240765A1, “RIFAMYCIN-QUINOLIZINONE COUPLED MOLECULE OINTMENT AND METHOD FOR PREPARING SAME” (Tennor Therapeutics (Zhongshan) Limited, priority 2022, published 2026).

Assays:
[1] = Saturation solubility of API in ointment bases; format: physicochemical
Protocol: (§1) Experimental steps: About 340 mg of API was added gradually and slowly to about 5 g of PEG400 (in a water bath at 40° C.), and the mixture was dissolved by magnetic stirring. The orange-red mixture was gradually viscous and could no longer be stirred. About 7 g of PEG400 was added gradually and stirred for another 20 min. The resulting mixture was divided into two portions, one portion was maintained in a water bath at 40° C., and the other portion was cooled to room temperature. Both portions were filtered through a PES water membrane (13 mm, 0.45 μm), and the filtrates were collected for content analysis.
as §1, with “About 400” for “Experimental steps: About 340”, “About 400 mg of” for “steps: About 340 mg of”, “g of propylene glycol (in a” for “g of PEG400 (in a”, “mixture was stirred for dissolution. The orange-red” for “mixture was dissolved by magnetic stirring. The orange-red”

[2] = cited from earlier work

Saturation solubility ([1]; in PEG400, 40° C.): 23.79 mg/g
Saturation solubility ([1]; in PEG400, room temperature): 5.80 mg/g
Saturation solubility ([1]; in propylene glycol, 40° C.): 0.65 mg/g
Saturation solubility ([1]; in propylene glycol, room temperature): 0.15 mg/g
SMILES: CO[C@H]1/C=C/O[C@@]2(C)Oc3c(C)c(O)c4c(O)c(c(/C=N/N5CCC(N(C)C6([C@@H]7CCN(c8c(F)cn9c(=O)c(C(=O)O)cc(C%10CC%10)c9c8C)C7)CC6)CC5)c(O)c4c3C2=O)NC(=O)/C(C)=C\C=C\[C@H](C)[C@H](O)[C@@H](C)[C@@H](O)[C@@H](C)[C@H](OC(C)=O)[C@@H]1C [API, rifamycin-quinolizinone coupling molecule]
Solubility in dichloromethane, polyethylene glycol 400, and dimethyl sulfoxide [2]: soluble
Solubility in ethanol, methanol, and diethyl ether [2]: almost insoluble
Water solubility [2]: low
Oxidation on exposure to air ([2]; phenol form converts to quinone form): easily to be oxidized
pH of maximum water solubility ([2]; water solubility is pH-dependent, relatively low at low pH): 10
